Data: publication PMC6368337, “GluClR-mediated inhibitory postsynaptic currents reveal targets for ivermectin and potential mechanisms of ivermectin resistance” (PLoS Pathogens, 2019)

Key:
[1] = system: Untransfected HEK293 cells; assay: Membrane partitioning, time-lapse fluorescence; details: 500 nM; for membrane accumulation time constant: change in membrane fluorescence over 30 min, exponential fit
Protocol: Two types of experiments were conducted with IVM-bdpy. The first was aimed at monitoring the time-course of membrane accumulation. Untransfected HEK293 cells were incubated in extracellular solution containing 500 nM IVM-bdpy and time-lapse images were taken over a period of 30 min (Fig 8A). The change in total membrane fluorescence averaged from 5 repeat experiments was then plotted against time and fitted to a standard exponential function (Fig 8B). In a control experiment, the corresponding accumulation rate was also determined for bdpy. To obtain the net membrane partitioning time-course for IVM-1, the data for the bdpy alone was subtracted from the data obtained for IVM-bdpy (Fig 8B). The time constants for the three plots were 6.5 min for the IVM-bdpy, 8.2 min for the bdpy fluorophore and 6.0 min for IVM-1. As the lipophilic properties of IVM and IVM-1 are similar (logPs of 5.4 and 5.1, respectively), we infer this analysis quantitatively reflects the membrane partitioning properties of IVM. […] It should be noted, however, that the IVM-bdpy experiment was done using a 100-fold higher concentration of drug in un-transfected cells and represents passive membrane accumulation, whereas the current plateau involved IVM binding to and activating receptors.
(§1) Membrane partitioning and FRAP experiments were performed on an LSM 710 inverted 2-photon confocal microscope equipped with a 40X water immersion objective lens (1.2 NA/280 μM WD/0.208 μM/pixel and a GFP/Alexa 488 filter set. Untransfected HEK293 cells at a confluency of 50–75% were plated onto 35-mm glass bottom dishes one day prior to experiments. The IVM-bdpy fluorophore was dissolved in 100% DMSO and stored at ‐20°C at a concentration of 24 mM.
(§2) A Mai Tai eHP 2-photon laser/760-1040 nm was used as an excitation source (power at 920 nm) for the FRAP experiments. The laser and bleaching power were set to 7% and 75% respectively. Membrane partitioning images were taken for 35 min at 0.5 Hz after replacing the cell medium (extracellular solution) with one containing the IVM-bdpy probe at a concentration of 500 nM. FRAP images were taken at a frequency of 0.5 Hz for 10 min after a 30 min equilibration period in 500 nM IVM-bdpy.

[2] = target: α (avr-14b) GluClRs (Haemonchus contortus, UniProt O46124); assay: Two-electrode voltage clamp in oocytes, α GluClRs; assay type: cell-based, H. contortus; details: for efficacy (maximal current normalised to saturating glutamate) compared to IVM: 30 nM, normalised to 5 mM glutamate
α (avr-14b) GluClRs, sequence (O46124 entry or part of it): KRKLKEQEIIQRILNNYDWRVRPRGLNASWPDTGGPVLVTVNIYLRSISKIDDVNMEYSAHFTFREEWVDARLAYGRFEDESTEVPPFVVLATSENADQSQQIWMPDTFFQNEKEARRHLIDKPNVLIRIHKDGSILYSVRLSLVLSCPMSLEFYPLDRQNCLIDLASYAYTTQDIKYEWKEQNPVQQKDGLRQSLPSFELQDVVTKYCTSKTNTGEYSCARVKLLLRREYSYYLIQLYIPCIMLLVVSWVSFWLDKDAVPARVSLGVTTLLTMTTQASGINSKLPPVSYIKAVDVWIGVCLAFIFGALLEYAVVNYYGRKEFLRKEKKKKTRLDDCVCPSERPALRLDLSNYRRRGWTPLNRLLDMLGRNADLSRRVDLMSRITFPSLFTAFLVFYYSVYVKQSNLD
Protocol: (§3) cDNAs encoding the α (avr-14b) (pcDNA 3.1+) or β (pUNIV) GluClR subunits of H. contortus were nuclear injected into oocytes (NASCO, WI USA) or transfected into HEK293AD cells (CellBank Australia) using a calcium phosphate-DNA co-precipitate method. Synapse formation between neurons and HEK293 cells was promoted by co-transfecting neuroligin 2A or 1B and the cDNA encoding CD4 surface antigen was also added to the transfection mixture so as to identify transfected cells. The oocytes and HEK cells were used for experiments 2–3 days after the introduction of the cDNAs. All experiments were done at room temperature (22 ± 1°C).
(§4) Xenopus laevis oocytes were harvested by surgical incision. The oocytes were then defolliculated with 1.5 mg/ml collagenase for 2 hours. Free oocytes were rinsed with calcium-free OR-2 solution containing (in mM) 82.5 NaCl, 2 KCl, 1 MgCl2, 5 HEPES, pH 7.4 and mature stage V or VI oocytes were isolated for experiments. The DNAs coding for α and β subunits were nuclear injected into the oocytes using a Nanoliter 2000 microinjector (WPI Inc) at a ratio of (α:β), 1:0, 0:1, 1:1 and 1:50. The total amount of injected DNA in all combinations was 400 ng ml^−1, including the 1:50 (α:β) combination (8 ng of DNA encoding the α and 392 ng of DNA encoding β subunits). Injected oocytes were incubated in ND96 storage solution (in mM) 96 NaCl, 2 KCl, 1 MgCl2.6H2O, 1.8 CaCl2, 5 HEPES, 50 μg ml^−1 gentamicin, 2.5 sodium pyruvate, 0.5 theophylline, pH 7.4 at 16°C for 2–3 days before experiment.
(§5) For the two-electrode voltage clamp recordings, each oocyte was secured in a cell bath that was continually perfused with ND96 recording solution (ND96 storage solution without pyruvate, theophylline and gentamicin). […] The two microelectrodes contained 3 M KCl and had resistances of 0.2–2 MΩ. Recordings were done using Clampex 10.2 software (Molecular Devices) at a clamped voltage of −40 mV. Currents were low-pass filtered at 200 Hz, sampled at 2 kHz using a Gene Clamp 500B amplifier and digitised by a Digidata 1440A interface. The IVM (IVM B1a) concentration-response experiments were standardised by using an application protocol that consisted of applying increasing concentrations of IVM for, respectively, 3 min, 3 min, 3 min, 2 min, 1 min, 1 min and 0.5 min.
(§6) Group data were analysed in SigmaPlot 13.0 using one-way ANOVAs, where p < 0.05 was taken as the significance threshold and expressed as mean ± SEM. Tests for normally distributed data are built into the SigmaPlot software. Confocal images were captured and analysed with Zen 2012 SP2 (Zeiss) software. Oocyte concentration-response data were fit to a Hill equation to obtain an EC50 and Hill co-efficient for each oocyte recording. These parameters were then averaged across multiple oocyte experiments of the same type. Single channel recordings were analysed in QuB software. […] The selected critical times eliminated periods of receptor desensitisation while retaining singe receptor active periods. Mean active period duration and intra-activation open probability was estimated from each patch. Group means were obtained by averaging across multiple patches for each recording condition.

[3] = target: αβ (1:50) GluClRs (Haemonchus contortus, UniProt O46124+P91730); assay: Two-electrode voltage clamp in oocytes, αβ (1:50) GluClRs; assay type: cell-based, H. contortus; details: 30 nM; for efficacy (maximal current normalised to saturating glutamate) compared to IVM: normalised to 5 mM glutamate, αβ 1:50; for differential efficacy between α and αβ (1:50) GluClRs: α versus αβ (1:50)
αβ (1:50) GluClRs, sequence (O46124 entry or part of it): as above
αβ (1:50) GluClRs, sequence (P91730 19-432): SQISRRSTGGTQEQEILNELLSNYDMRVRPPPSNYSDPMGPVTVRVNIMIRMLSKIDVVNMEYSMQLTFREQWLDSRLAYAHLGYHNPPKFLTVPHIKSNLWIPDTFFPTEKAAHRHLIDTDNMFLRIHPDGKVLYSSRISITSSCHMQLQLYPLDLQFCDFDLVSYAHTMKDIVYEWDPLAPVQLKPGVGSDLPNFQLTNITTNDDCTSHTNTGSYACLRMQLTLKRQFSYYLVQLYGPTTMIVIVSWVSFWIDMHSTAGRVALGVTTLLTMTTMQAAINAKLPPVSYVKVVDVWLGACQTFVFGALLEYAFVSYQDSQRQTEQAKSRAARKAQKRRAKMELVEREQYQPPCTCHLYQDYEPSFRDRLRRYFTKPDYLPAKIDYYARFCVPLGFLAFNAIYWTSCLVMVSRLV
Protocol: as §3, §4, §5, §6

[4] = system: α GluClRs; assay: IPSC recording in HEK293-neuron heteroculture, α GluClRs; assay type: cell-based, H. contortus; details: HEK293-neuron co-culture, −70 mV
Protocol: as §3
Primary neuronal cultures were prepared from cortices of E18 rat embryos, (University of Queensland Biological Services), which were triturated and plated at 100,000 cells per 18-mm poly-D-lysine-coated coverslip in DMEM with 10% fetal bovine serum. After 24 h the entire medium was replaced with Neurobasal medium that included 2% B27 and 1% GlutaMAX supplements. After one week half of this medium was replaced and the neurons were allowed to grow in vitro for 3–5 weeks before introducing the transfected HEK293 cells. Recordings of synaptic currents were done in whole-cell configuration at ‐70 mV using an Axopatch 200B amplifier (Molecular Devices), filtered at 5 kHz and digitized at 20 kHz using Clampex (pClamp 10 suite, Molecular Devices) via a Digidata 1440A digitizer.

[5] = system: Untransfected HEK293 cells; assay: Fluorescence recovery after photobleaching (FRAP), lateral membrane diffusion
Protocol: The second experiment was aimed at determining the lateral membrane diffusion properties of IVM using the fluorescence recovery after photobleaching (FRAP) technique. After a 30-min equilibration time, 5 cells were monitored for fluorescence recovery within a bleached circular patch of membrane of 3.7 μm diameter (Fig 8C). Any bleaching and recovery of the surrounding area of the cell was measured, using a similar circular patch and used to correct the recovery rate of the membrane delineated by the bleached area. We also noted that the recovery reached 98 ± 2% of control. The time constant (τ) for recovery of 1.3 minutes was used to calculate the diffusion coefficient (D), using the radius (r) of the bleached patch, according to D = r^2/4τ. The calculated value of D was 1.1 x 10^−2 μm^2s^−1. Over the course of 1 s, the IVM-bdpy probe would traverse 0.2 μm along the membrane surface (lateral diffusion rate of 0.2 μms^−1). […] We infer that this slow lateral diffusion rate coupled to membrane partitioning are the major contributors to local increases of IVM around its target binding sites and the slow quasi-irreversible actions of IVM at GluClRs.
as §1, §2

Row | Molecule | membrane accumulation time constant [1] | efficacy (maximal current normalised to saturating glutamate) compared to IVM [2] | efficacy (maximal current normalised to saturating glutamate) compared to IVM [3] | differential efficacy between α and αβ (1:50) GluClRs [3] | other results
1 | C#CCOc1ccc(C2=C3C(C)=C(CC)C(C)=[N+]3[B-](F)(F)n3c(C)c(CC)c(C)c32)cc1 [bdpy] | 8.2 min |  |  |  | 
2 | CC[C@H](C)[C@H]1O[C@]2(CC[C@@H]1C)C[C@@H]1C[C@@H](C/C=C(\C)[C@@H](OCOC)[C@@H](C)/C=C/C=C3\CO[C@@H]4[C@H](O)C(C)=C[C@@H](C(=O)O1)[C@]34O)O2 [IVM-2] |  | restored efficacy | preservation of efficacy | abolished the differential sensitivity | 
3 | picrotoxin |  |  |  |  | effect on IPSCs [4]: blocked
4 | CC[C@H](C)[C@H]1O[C@]2(CC[C@@H]1C)C[C@@H]1C[C@@H](C/C=C(\C)[C@@H](OCOC)[C@@H](C)/C=C/C=C3\CO[C@@H]4[C@@H](O)C(C)=C[C@@H](C(=O)O1)[C@]34O)O2 [IVM-3] |  | most marked reduction in potency | most marked reduction in potency | ablated the differential efficacy | 
5 | CCC1=C(C)C2=C(c3ccc(OCc4cn(CCCC(=O)O[C@@H]5/C(C)=C/C[C@@H]6C[C@@H](C[C@]7(CC[C@H](C)[C@@H]([C@@H](C)CC)O7)O6)OC(=O)[C@@H]6C=C(C)[C@@H](O)[C@H]7OC/C(=C\C=C\[C@@H]5C)[C@]76O)nn4)cc3)c3c(C)c(CC)c(C)n3[B-](F)(F)[N+]2=C1C [IVM-bdpy] | 6.5 min |  |  |  | potency relative to IVM ([2]; concentration-response, n = 6): reduced potency; activity at α GluClRs ([2]; oocyte current): active; time to saturate whole cell membranes [1]: about 18 minutes; FRAP recovery time constant (τ) ([5]; 500 nM, 30 min equilibration): 1.3 min; diffusion coefficient (D) ([5]; calculated by D = r^2/4τ): 1.1 x 10^−2 μm^2s^−1; lateral diffusion rate ([5]; in cell membrane): 0.2 μms^−1
